System: adult fleas (C. felis)
Assay: In vitro membrane feeding exposure to assess flea reproduction
Parameters: species or system Ctenocephalides felis
Details: for Effect on hatching of larvae: flea groups able to lay eggs, all concentrations
Protocol: A membrane feeding method [Wade S E, Georgi J R. Survival and reproduction of artificially fed cat fleas, Ctenocephalides felis Bouché (Siphonaptera: Pulicidae). J Med Entomol 1988, 25: 186-190.] was modified to assess the impact of fluralaner exposure on flea reproduction. Defibrinated sheep blood was prepared in a series of dilutions with fluralaner to obtain concentrations between 50.0 and 0.09 ng/mL. These test solutions were prepared twice and each preparation was tested in duplicate resulting in a total of 4 replicates per concentration, along with a fluralaner negative solvent control (a solvent concentration equivalent to that of the highest concentrated fluralaner test solution) and an untreated control.
Unfed adult fleas (C. felis; 20 males and 20 females) were placed into a plastic unit that was then closed with a gauze lid. A grid inside the plastic unit divided the unit into 2 chambers, an upper chamber for flea feeding and a lower chamber for egg collection. Test or control blood preparations (2 ml) were placed in an artificial membrane closed glass tube that was then placed on the plastic unit as the food source. Feeding units were incubated (38° C. and 60% RH) for 10 days. Test and negative control blood preparations were freshly prepared and exchanged (on days 1, 3, 5, and 8) to permit continuous flea feeding. Fleas were transferred into fresh plastic units on Days 5 and 8 to facilitate egg collection. Collected eggs were mixed with flea nourishment medium and incubated (28° C. and 80% RH) in darkness for 22 (±3) days to enable flea development. Parameters recorded were flea survival, oviposition control, egg hatchability, pupa control, flea-emergence control and reproduction inhibition.

[1] = eggs of parent fleas fed 0.09 ng/mL in blood, exposure day 9
[2] = eggs of parent fleas fed 0.09 ng/mL in blood, exposure day 10
[3] = eggs of parent fleas fed 0.19 ng/mL in blood, exposure day 3
[4] = eggs of parent fleas fed 0.19 ng/mL in blood, exposure day 4
[5] = eggs of parent fleas fed 0.19 ng/mL in blood, exposure day 5
[6] = eggs of parent fleas fed 0.19 ng/mL in blood, exposure day 8
[7] = eggs of parent fleas fed 0.19 ng/mL in blood, exposure day 9
[8] = eggs of parent fleas fed 0.19 ng/mL in blood, exposure day 10
[9] = eggs of parent fleas fed 0.39 ng/mL in blood, exposure day 3
[10] = eggs of parent fleas fed 0.39 ng/mL in blood, exposure day 4
[11] = eggs of parent fleas fed 0.39 ng/mL in blood, exposure day 5
[12] = eggs of parent fleas fed 0.39 ng/mL in blood, exposure day 8
[13] = eggs of parent fleas fed 0.39 ng/mL in blood, exposure day 9
[14] = eggs of parent fleas fed 0.39 ng/mL in blood, exposure day 10
[15] = eggs of parent fleas fed 0.78 ng/mL in blood, exposure day 3
[16] = eggs of parent fleas fed 0.78 ng/mL in blood, exposure day 4
[17] = eggs of parent fleas fed 0.78 ng/mL in blood, exposure day 5
[18] = eggs of parent fleas fed 0.78 ng/mL in blood, exposure day 8
[19] = eggs of parent fleas fed 0.78 ng/mL in blood, exposure day 9
[20] = eggs of parent fleas fed 0.78 ng/mL in blood, exposure day 10
[21] = eggs of parent fleas fed 1.56 ng/mL in blood, exposure day 3
[22] = eggs of parent fleas fed 1.56 ng/mL in blood, exposure day 4
[23] = eggs of parent fleas fed 1.56 ng/mL in blood, exposure day 5
[24] = eggs of parent fleas fed 1.56 ng/mL in blood, exposure day 8
[25] = eggs of parent fleas fed 1.56 ng/mL in blood, exposure day 9
[26] = eggs of parent fleas fed 1.56 ng/mL in blood, exposure day 10
[27] = eggs of parent fleas fed 3.13 ng/mL in blood, exposure day 3
[28] = eggs of parent fleas fed 3.13 ng/mL in blood, exposure day 4
[29] = eggs of parent fleas fed 3.13 ng/mL in blood, exposure day 5
[30] = eggs of parent fleas fed 3.13 ng/mL in blood, exposure day 8
[31] = eggs of parent fleas fed 3.13 ng/mL in blood, exposure day 9
[32] = eggs of parent fleas fed 3.13 ng/mL in blood, exposure day 10
[33] = eggs of parent fleas fed 6.25 ng/mL in blood, exposure day 3
[34] = eggs of parent fleas fed 6.25 ng/mL in blood, exposure day 4
[35] = eggs of parent fleas fed 6.25 ng/mL in blood, exposure day 5
[36] = eggs of parent fleas fed 6.25 ng/mL in blood, exposure day 8
[37] = eggs of parent fleas fed 6.25 ng/mL in blood, exposure day 9
[38] = eggs of parent fleas fed 6.25 ng/mL in blood, exposure day 10
[39] = eggs of parent fleas fed 12.5 ng/mL in blood, exposure day 3
[40] = eggs of parent fleas fed 12.5 ng/mL in blood, exposure day 8
[41] = eggs of parent fleas fed 12.5 ng/mL in blood, exposure day 9

Cc1cc(C2=NOC(c3cc(Cl)cc(Cl)c3)(C(F)(F)F)C2)ccc1C(=O)NCC(=O)NCC(F)(F)F (centres unmarked) [fluralaner, 4-[5-(3,5-Dichlorophenyl)-5-trifluoromethyl-4,5-dihydroisoxazol-3-yl]-2-methyl-N-[(2,2,2-trifluoro-ethylcarbamoyl)-methyl]-benzamide]
Pupal Development Control (eggs of parent fleas fed 0.09 ng/mL in blood, exposure day 8): 0%
Larval Emergence [1]: yes
Pupal Development Control [1]: 5.9%
Larval Emergence [2]: yes
Pupal Development Control [2]: 2.9%
Pupal Development Control (eggs of parent fleas fed 0.19 ng/mL in blood, arithmetic mean of exposure days): 3.1%
Larval Emergence [3]: yes
Pupal Development Control [3]: 8.8%
Larval Emergence [4]: yes
Pupal Development Control [4]: 0.2%
Larval Emergence [5]: yes
Pupal Development Control [5]: 6.8%
Larval Emergence [6]: yes
Pupal Development Control [6]: 0%
Larval Emergence [7]: yes
Pupal Development Control [7]: 2.7%
Larval Emergence [8]: yes
Pupal Development Control [8]: 0%
Pupal Development Control (eggs of parent fleas fed 0.39 ng/mL in blood, arithmetic mean of exposure days): 3.6%
Larval Emergence [9]: yes
Pupal Development Control [9]: 9.8%
Larval Emergence [10]: yes
Pupal Development Control [10]: 0%
Larval Emergence [11]: yes
Pupal Development Control [11]: 1.5%
Larval Emergence [12]: yes
Pupal Development Control [12]: 3.3%
Larval Emergence [13]: yes
Pupal Development Control [13]: 6.3%
Larval Emergence [14]: yes
Pupal Development Control [14]: 0.8%
Pupal Development Control (eggs of parent fleas fed 0.78 ng/mL in blood, arithmetic mean of exposure days): 12.1%
Larval Emergence [15]: yes
Pupal Development Control [15]: 7.5%
Larval Emergence [16]: yes
Pupal Development Control [16]: 11.4%
Larval Emergence [17]: yes
Pupal Development Control [17]: 16.7%
Larval Emergence [18]: yes
Pupal Development Control [18]: 10.8%
Larval Emergence [19]: yes
Pupal Development Control [19]: 11.9%
Larval Emergence [20]: yes
Pupal Development Control [20]: 14.5%
Pupal Development Control (eggs of parent fleas fed 1.56 ng/mL in blood, arithmetic mean of exposure days): 35.1%
Larval Emergence [21]: yes
Pupal Development Control [21]: 35.3%
Larval Emergence [22]: yes
Pupal Development Control [22]: 36.3%
Larval Emergence [23]: yes
Pupal Development Control [23]: 34.6%
Larval Emergence [24]: yes
Pupal Development Control [24]: 35.5%
Larval Emergence [25]: yes
Pupal Development Control [25]: 41.6%
Larval Emergence [26]: yes
Pupal Development Control [26]: 27.2%
Pupal Development Control (eggs of parent fleas fed 3.13 ng/mL in blood, arithmetic mean of exposure days): 64.5%
Larval Emergence [27]: yes
Pupal Development Control [27]: 66.3%
Larval Emergence [28]: yes
Pupal Development Control [28]: 68.9%
Larval Emergence [29]: yes
Pupal Development Control [29]: 61.7%
Larval Emergence [30]: yes
Pupal Development Control [30]: 70.3%
Larval Emergence [31]: yes
Pupal Development Control [31]: 62.1%
Larval Emergence [32]: yes
Pupal Development Control [32]: 57.4%
Pupal Development Control (eggs of parent fleas fed 6.25 ng/mL in blood, arithmetic mean of exposure days): 88.7%
Larval Emergence [33]: yes
Pupal Development Control [33]: 90.2%
Larval Emergence [34]: yes
Pupal Development Control [34]: 92.4%
Larval Emergence [35]: yes
Pupal Development Control [35]: 87.3%
Larval Emergence [36]: yes
Pupal Development Control [36]: 86.4%
Larval Emergence [37]: yes
Pupal Development Control [37]: 89.9%
Larval Emergence [38]: yes
Pupal Development Control [38]: 86.0%
Pupal Development Control (eggs of parent fleas fed 12.5 ng/mL in blood, arithmetic mean of exposure days): 85.1%
Larval Emergence [39]: no
Pupal Development Control [39]: 100%
Larval Emergence [40]: yes
Pupal Development Control [40]: 55.2%
Larval Emergence [41]: yes
Pupal Development Control [41]: 100%
Effect on hatching of larvae: does not affect the hatching of larvae
Effect on hatching of larvae (listed as Fluralaner): did not affect the hatching of larvae
Adult Flea Emergence Control (parent fleas fed 0.09 ng/mL in blood, arithmetic mean of exposure days): 0.3%
Adult Flea Emergence Control (parent fleas fed 0.09 ng/mL in blood, exposure day 3): 1.1%
Adult Flea Emergence Control (parent fleas fed 0.09 ng/mL in blood, exposure day 4): 0.5%
Adult Flea Emergence Control (parent fleas fed 0.09 ng/mL in blood, exposure day 5): 0%
Adult Flea Emergence Control (parent fleas fed 0.09 ng/mL in blood, exposure day 8): 0%
Adult Flea Emergence Control (parent fleas fed 0.09 ng/mL in blood, exposure day 9): 0%
Adult Flea Emergence Control (parent fleas fed 0.09 ng/mL in blood, exposure day 10): 0%
Adult Flea Emergence Control (parent fleas fed 0.19 ng/mL in blood, arithmetic mean of exposure days): 2.2%
Adult Flea Emergence Control (parent fleas fed 0.19 ng/mL in blood, exposure day 3): 4.6%
Adult Flea Emergence Control (parent fleas fed 0.19 ng/mL in blood, exposure day 4): 0%
Adult Flea Emergence Control (parent fleas fed 0.19 ng/mL in blood, exposure day 5): 1.3%
Adult Flea Emergence Control (parent fleas fed 0.19 ng/mL in blood, exposure day 8): 0.8%
Adult Flea Emergence Control (parent fleas fed 0.19 ng/mL in blood, exposure day 9): 6.7%
Adult Flea Emergence Control (parent fleas fed 0.19 ng/mL in blood, exposure day 10): 0%
Adult Flea Emergence Control (parent fleas fed 0.39 ng/mL in blood, arithmetic mean of exposure days): 1.1%
Adult Flea Emergence Control (parent fleas fed 0.39 ng/mL in blood, exposure day 3): 0%
Adult Flea Emergence Control (parent fleas fed 0.39 ng/mL in blood, exposure day 4): 0%
Adult Flea Emergence Control (parent fleas fed 0.39 ng/mL in blood, exposure day 5): 0%
Adult Flea Emergence Control (parent fleas fed 0.39 ng/mL in blood, exposure day 8): 1.6%
Adult Flea Emergence Control (parent fleas fed 0.39 ng/mL in blood, exposure day 9): 5.2%
Adult Flea Emergence Control (parent fleas fed 0.39 ng/mL in blood, exposure day 10): 0%
Adult Flea Emergence Control (parent fleas fed 0.78 ng/mL in blood, arithmetic mean of exposure days): 1.5%
Adult Flea Emergence Control (parent fleas fed 0.78 ng/mL in blood, exposure day 3): 3.8%
Adult Flea Emergence Control (parent fleas fed 0.78 ng/mL in blood, exposure day 4): 0%
Adult Flea Emergence Control (parent fleas fed 0.78 ng/mL in blood, exposure day 5): 0%
Adult Flea Emergence Control (parent fleas fed 0.78 ng/mL in blood, exposure day 8): 3.1%
Adult Flea Emergence Control (parent fleas fed 0.78 ng/mL in blood, exposure day 9): 1.8%
Adult Flea Emergence Control (parent fleas fed 0.78 ng/mL in blood, exposure day 10): 0%
Adult Flea Emergence Control (parent fleas fed 1.56 ng/mL in blood, arithmetic mean of exposure days): 1.7%
Adult Flea Emergence Control (parent fleas fed 1.56 ng/mL in blood, exposure day 3): 0%
Adult Flea Emergence Control (parent fleas fed 1.56 ng/mL in blood, exposure day 4): 0%
Adult Flea Emergence Control (parent fleas fed 1.56 ng/mL in blood, exposure day 5): 0%
Adult Flea Emergence Control (parent fleas fed 1.56 ng/mL in blood, exposure day 8): 10.2%
Adult Flea Emergence Control (parent fleas fed 1.56 ng/mL in blood, exposure day 9): 0%
Adult Flea Emergence Control (parent fleas fed 1.56 ng/mL in blood, exposure day 10): 0%
Adult Flea Emergence Control (parent fleas fed 3.13 ng/mL in blood, arithmetic mean of exposure days): 5.9%
Adult Flea Emergence Control (parent fleas fed 3.13 ng/mL in blood, exposure day 3): 4.4%
Adult Flea Emergence Control (parent fleas fed 3.13 ng/mL in blood, exposure day 4): 11.9%
Adult Flea Emergence Control (parent fleas fed 3.13 ng/mL in blood, exposure day 5): 3.2%
Adult Flea Emergence Control (parent fleas fed 3.13 ng/mL in blood, exposure day 8): 8.6%
Adult Flea Emergence Control (parent fleas fed 3.13 ng/mL in blood, exposure day 9): 7.5%
Adult Flea Emergence Control (parent fleas fed 3.13 ng/mL in blood, exposure day 10): 0%
Adult Flea Emergence Control (parent fleas fed 6.25 ng/mL in blood, arithmetic mean of exposure days): 11.5%
Adult Flea Emergence Control (parent fleas fed 6.25 ng/mL in blood, exposure day 3): 29.2%
Adult Flea Emergence Control (parent fleas fed 6.25 ng/mL in blood, exposure day 4): 0%
Adult Flea Emergence Control (parent fleas fed 6.25 ng/mL in blood, exposure day 5): 0%
Adult Flea Emergence Control (parent fleas fed 6.25 ng/mL in blood, exposure day 8): 9.2%
Adult Flea Emergence Control (parent fleas fed 6.25 ng/mL in blood, exposure day 9): 30.8%
Adult Flea Emergence Control (parent fleas fed 6.25 ng/mL in blood, exposure day 10): 0%
Adult Flea Emergence Control (parent fleas fed 12.5 ng/mL in blood, arithmetic mean of exposure days): 100%
Adult Flea Emergence Control (parent fleas fed 12.5 ng/mL in blood, exposure day 8): 100%

— US9655884B2, “Antiparasitic use of isoxazoline compounds” (Intervet Inc., priority 2013, dated 2017)
